From patent publication US10344026B2, “Compositions and methods of targeting mutant K-ras” (NANTBIO, INC., priority 2017, dated 2019)
Read-outs that look alike come from different tables or passages of the source.

Key:
Format in all cases: cell-based
[1] = system: Ishikawa (K-Ras wild type cell line); assay: Viability assay (CellTiterBlue, 72 hr) Ishikawa; details: Homo sapiens, GI50, CellTiterBlue
Procedure: (§1) Viability assays were performed on exemplary compounds and Table 2 below lists exemplary results for selected compounds tested on K-Ras wild type cell lines (Ishikawa, U87-MG, HCC827, and A375) and various K-Ras mutant cell lines (Panc1-G12D; Panc10.05-G12D; HCT116-G31D). Results are expressed in μM and corresponding structures are shown in FIGS. 2A-2G and Examples 1-152, above.
(§2) Cells are counted and seeded at 1000 cells/36 ul medium/well into 384-well microplates. Cells are returned to 37° C. CO2 incubator for 18 hr. Drug is made as 200× in DMSO and diluted into medium to 10×. To each well is added 4 ul 10× drug, and plates are returned to the incubator. Final assay DMSO concentration is 0.5%. After 72 hr, 8 ul CellTiterBlue (Promega) is added to each well. After 3 hr, fluorescence (Ex550/Em590) is determined on the Victor Plate Reader (Perkin Elmer). Assay range is determined by DMSO control (100% viability) and 100 uM tamoxifen (0% viability). GI50 values are calculated using Graphpad Prism.

[2] = system: U87-MG (K-Ras wild type cell line); assay: Viability assay (CellTiterBlue, 72 hr) U87-MG; details: Homo sapiens, U-87 MG, GI50, CellTiterBlue, U87-MG K-Ras wild-type
Procedure: as §1, §2

Panc1-G12D = assay: Viability assay (CellTiterBlue, 72 hr) Panc1; details: Homo sapiens, PANC-1, GI50, CellTiterBlue, read-out: 72 hr Cell Viability Panc1 (G12D)
Procedure: as §1, §2

Panc10.05-G12D = assay: Viability assay (CellTiterBlue, 72 hr) Panc10.05; details: Homo sapiens, Panc1005, GI50, CellTiterBlue, read-out: 72 hr Cell Viability Panc10.05 (G12D)
Procedure: as §1, §2

HCT116-G31D = assay: Viability assay (CellTiterBlue, 72 hr) HCT116; details: Homo sapiens, HCT-116, GI50, CellTiterBlue, read-out: 72 hr Cell Viability HCT116 (G13D)
Procedure: as §1, §2

[3] = system: phospho-Akt in Panc1 (G12D); assay: In-Cell Western phospho-Akt, Panc1; details: Homo sapiens, PANC-1, 1 h; Panc1, one hour treatment; read-out: In-Cell Western Panc1 (G12D) Akt (P)
Procedure: (§3) In-cell phosphorylation assays for Erk and Akt were performed on several of the compounds and exemplary results are shown in Table 3 below using HCC827 and A375 cell lines for wild type K-Ras and Panc1 and Panc10.05 cell lines for G12D K-Ras mutants. Results are expressed in μM and corresponding structures are shown in FIGS. 2A-2G and Examples 1-152, above.
(§4) Cells are seeded in complete medium into black sided, clear-bottom 384-well microplates at 3000 cells/[…]/well. Plates are returned to 37° C. CO2 incubator for 18 hr. Drug is made as 200× in DMSO and diluted into medium to 10×. To each well is added 4 ul 10× test article or controls, and plates are returned to the incubator. Final assay DMSO concentration is 0.5%. After one hour, cells are fixed in formaldehyde, rinsed & permeabilized with triton X-100, and blocked with BSA/Goat serum blocking solution. Primary phospho-Akt and phospho-ERK antibodies are added and plates are incubated overnight at 4° C. Plates are rinsed with Tween-20 wash buffer and secondary antibody (Goat anti-rabbit, Thermofisher) is added. After 2 hours, plates are rinsed in Tween-20 wash buffer, and then PBS. Plates are imaged on the Celigo (Nexcelom) and cellular fluorescence is quantitated. Full inhibition of phospho-Akt is achieved with 1 uM BEZ235 (Sellekchem), while full inhibition of phospho-ERK is achieved with 1 uM MEK Inhibitor II Calbiochem). EC50 values are calculated using Graphpad Prism.

[4] = system: phospho-Akt in Panc10.05 (G12D); assay: In-Cell Western phospho-Akt, Panc10.05; details: Homo sapiens, Panc1005, 1 h; Panc10.05, one hour treatment; read-out: In-Cell Western Panc10.05 (G12D) Akt (P)
Procedure: as §3, §4

[5] = system: phospho-ERK in Panc1 (G12D); assay: In-Cell Western phospho-ERK, Panc1; details: Homo sapiens, PANC-1, 1 h; Panc1, one hour treatment; read-out: In-Cell Western Panc1 (G12D) Erk (P)
Procedure: as §3, §4

[6] = system: phospho-ERK in Panc10.05 (G12D); assay: In-Cell Western phospho-ERK, Panc10.05; details: Homo sapiens, Panc1005, 1 h; Panc10.05, one hour treatment; read-out: In-Cell Western Panc10.05 (G12D) Erk (P)
Procedure: as §3, §4

wild type K-Ras = biological target: T1, wild type K-Ras (Homo sapiens, UniProt P01116); assay: G-LISA Ras activation, 293H cells transfected with Ras wild-type, EGF stimulated; details: compound 1 hour, then 100 ng/ml EGF 2 minutes
T1 construct: expressed in transfected cells; host or cells: 293H cells
Procedure: (§5) 293H cells were seeded in 6-wells at 0.6×10^6 cells per well and transfected next day with 5 μg of Ras wild-type, or G12C, G12D or G12V mutant DNA plasmid vector using transfection reagent Lipofectamine 3000. Next day cells were treated with 3.125-25 μM of Ras compounds for 1 hour. Wild-type transfected cells were subsequently treated with 100 ng/ml EGF for 2 minutes. Cells were washed once in ice-cold PBS, lysed in complete lysis buffer on ice, and processed by G-LISA according to Cytoskeleton protocol.

K-Ras G12D = biological target: T2, K-Ras G12D (Homo sapiens, UniProt P01116, G12D); assay: G-LISA Ras activation, 293H cells transfected with G12D mutant; details: compound 1 hour
T2 construct: expressed in transfected cells; host or cells: 293H cells
Procedure: as §5

[7] = system: HCC827 (K-Ras wild type cell line); assay: Viability assay (CellTiterBlue, 72 hr) HCC827; details: Homo sapiens, GI50, CellTiterBlue
Procedure: as §1, §2

T2 sequence (P01116 whole entry G12D): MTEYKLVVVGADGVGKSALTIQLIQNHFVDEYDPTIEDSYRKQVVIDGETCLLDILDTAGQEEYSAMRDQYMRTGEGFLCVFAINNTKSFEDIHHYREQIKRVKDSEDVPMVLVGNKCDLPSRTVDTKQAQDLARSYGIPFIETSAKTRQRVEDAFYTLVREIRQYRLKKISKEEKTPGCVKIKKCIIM
T1 sequence (P01116 whole entry): as the sequence (P01116 whole entry G12D) above, with D12G counted along it

Structure (SMILES)	IC50 ([1]; Ishikawa K-Ras wild-type)	IC50 [2]	IC50 (Panc1-G12D; Panc1 K-Ras G12D)	IC50 (Panc10.05-G12D; Panc10.05 K-Ras G12D)	IC50 (HCT116-G31D; HCT116 K-Ras G13D)	EC50 [3]	EC50 [4]	EC50 [5]	EC50 [6]	IC50 (wild type K-Ras)	IC50 (K-Ras G12D)	IC50 ([7]; HCC827 K-Ras wild-type)	IC50 ([1]; Ishikawa cells (K-Ras wild-type))	IC50 ([7]; HCC827 cells (K-Ras wild-type))	IC50 (Panc1-G12D; Panc1 cells (K-Ras G12D))	IC50 (Panc10.05-G12D; Panc10.05 cells (K-Ras G12D))	IC50 (HCT116-G31D; HCT116 cells (K-Ras G13D))
Cc1nc(NS(C)(=O)=O)sc1C(=O)Nc1nc(-c2ccc3c(c2)CCC(=O)N3)cs1 [Compound 13, 4-methyl-2-(methylsulfonamido)-N-(4-(2-oxo-1,2,3,4-tetrahydroquinolin-6-yl)thiazol-2-yl)thiazole-5-carboxamide]	> 25 µM	> 25 µM	> 25 µM	> 25 µM	21 µM	> 25 µM	> 25 µM	–	–	–	–	–	–	–	–	–	–
CCc1nc(C)c(C(=O)Nc2nc(-c3ccc4c(c3)CCC(=O)N4Cc3ccncc3)cs2)o1 [Compound 65, 2-ethyl-4-methyl-N-(4-(2-oxo-1-(pyridin-4-ylmethyl)-1,2,3,4-tetrahydroquinolin-6-yl)thiazol-2-yl)oxazole-5-carboxamide]	> 25 µM	> 25 µM	> 25 µM	15 µM	> 25 µM	> 25 µM	–	> 25 µM	> 25 µM	–	–	–	–	–	–	–	–
Cc1nc(C)c(C(=O)Nc2nc(-c3ccc4c(c3)CCC(=O)N4)cs2)s1 [Compound 1, 2,4-dimethyl-N-(4-(2-oxo-1,2,3,4-tetrahydroquinolin-6-yl)thiazol-2-yl)thiazole-5-carboxamide]	–	–	–	–	–	–	–	–	–	3.8 µM	9.3 µM	–	–	–	–	–	–
Cc1nc(C)c(C(=O)Nc2nc(-c3ccc4c(c3)CCC(=O)N4)c(Cl)s2)s1 [Compound 144, N-(5-chloro-4-(2-oxo-1,2,3,4-tetrahydroquinolin-6-yl)thiazol-2-yl)-2,4-dimethylthiazole-5-carboxamide]	> 25 µM	11 µM	8 µM	10 µM	> 25 µM	16 µM	> 25 µM	6 µM	10 µM	–	–	–	–	–	–	–	–
Cc1nc(C2CCN(C)CC2)sc1C(=O)Nc1nc(-c2ccc3c(c2)CCC(=O)N3)cs1 [Compound 16, 4-methyl-2-(1-methylpiperidin-4-yl)-N-(4-(2-oxo-1,2,3,4-tetrahydroquinolin-6-yl)thiazol-2-yl)thiazole-5-carboxamide]	> 25 µM	> 25 µM	3 µM	11 µM	9 µM	> 25 µM	> 25 µM	–	–	–	–	–	–	–	–	–	–
Cc1cn(C)nc1C(=O)Nc1nc(-c2ccc3c(c2)CCC(=O)N3)cs1 [Compound 23, 1,4-dimethyl-N-(4-(2-oxo-1,2,3,4-tetrahydroquinolin-6-yl)thiazol-2-yl)-1H-pyrazole-3-carboxamide]	> 25 µM	–	> 25 µM	2 µM	> 25 µM	> 25 µM	> 25 µM	> 25 µM	> 25 µM	–	–	> 25 µM	–	–	–	–	–
CC(=O)Nc1nc(C)c(C(=O)Nc2nc(-c3ccc4c(c3)CCC(=O)N4)cs2)s1 [Compound 14, 2-acetamido-4-methyl-N-(4-(2-oxo-1,2,3,4-tetrahydroquinolin-6-yl)thiazol-2-yl)thiazole-5-carboxamide]	> 25 µM	> 25 µM	> 25 µM	6 µM	> 25 µM	> 25 µM	–	> 25 µM	26 µM	–	–	–	–	–	–	–	–
Cc1ncccc1C(=O)Nc1nc(-c2ccc3c(c2)CCC(=O)N3)cs1 [Compound 17, 2-methyl-N-(4-(2-oxo-1,2,3,4-tetrahydroquinolin-6-yl)thiazol-2-yl)nicotinamide]	> 25 µM	–	7 µM	4 µM	> 25 µM	> 25 µM	23 µM	> 25 µM	> 25 µM	–	–	> 25 µM	–	–	–	–	–
Cc1nc(C(=O)Nc2nc(-c3ccc4c(c3)CCC(=O)N4)cs2)c(C)o1 [Compound 9, 2,5-dimethyl-N-(4-(2-oxo-1,2,3,4-tetrahydroquinolin-6-yl)thiazol-2-yl)oxazole-4-carboxamide]	> 25 µM	–	> 25 µM	> 25 µM	> 25 µM	> 25 µM	> 25 µM	> 25 µM	> 25 µM	–	–	> 25 µM	–	–	–	–	–
Cc1ncc(C(=O)Nc2nc(-c3ccc4c(c3)CCC(=O)N4)cs2)c(C)n1 [Compound 148, 2,4-dimethyl-N-(4-(2-oxo-1,2,3,4-tetrahydroquinolin-6-yl)thiazol-2-yl)pyrimidine-5-carboxamide]	–	–	–	–	–	> 25 µM	> 25 µM	> 25 µM	> 25 µM	–	–	–	18 µM	11 µM	4 µM	2 µM	> 25 µM
Cc1nc(NC(=O)Nc2ccccc2)sc1C(=O)Nc1nc(-c2ccc3c(c2)CCC(=O)N3)cs1 [Compound 15]	15 µM	15 µM	> 25 µM	1.3 µM	> 25 µM	–	> 25 µM	2 µM	> 25 µM	–	–	–	–	–	–	–	–
Cc1nc(C)c(C(=O)Nc2nc(-c3ccc4c(c3)CCC(=O)N4)cs2)o1 [Compound 4, 2,4-dimethyl-N-(4-(2-oxo-1,2,3,4-tetrahydroquinolin-6-yl)thiazol-2-yl)oxazole-5-carboxamide]	–	–	–	–	–	–	–	–	–	25.1 µM	10.9 µM	–	–	–	–	–	–
Cc1nc(C2CCCCC2)sc1C(=O)Nc1nc(-c2ccc3c(c2)CCC(=O)N3)cs1 [Compound 146, 2-cyclohexyl-4-methyl-N-(4-(2-oxo-1,2,3,4-tetrahydroquinolin-6-yl)thiazol-2-yl)thiazole-5-carboxamide]	> 25 µM	–	13 µM	8 µM	> 25 µM	> 25 µM	> 25 µM	5 µM	9 µM	–	–	–	–	–	–	–	–
Cc1nc(CN)sc1C(=O)Nc1nc(-c2ccc3c(c2)CCC(=O)N3)cs1 [Compound 147, 2-(aminomethyl)-4-methyl-N-(4-(2-oxo-1,2,3,4-tetrahydroquinolin-6-yl)thiazol-2-yl)thiazole-5-carboxamide]	> 25 µM	–	17 µM	12 µM	> 25 µM	> 25 µM	> 25 µM	12 µM	14 µM	–	> 25 µM	–	–	–	–	–	–
